According to US4214093A, “Amino- or guanidino-1,2,3,4-tetrahydro-1-naphthoic esters” (Torii & Co., Ltd., priority 1977, dated 1980):

molecular target: Human Plasma Kallikrein (Homo sapiens, UniProt P03952); assay: Inhibitory effect on ester-hydrolyzing activity of human plasma kallikrein (TAMe substrate); format: biochemical; settings: at 10^-3 M; in vitro, TAMe; read-out: Kallikrein percent inhibition
Description: (§1) The enzyme-inhibitory activities in vitro of the compounds of this invention were measured by the following procedure according to the method of M. Muramatsu et al. [[…]. […] After the incubation, 1.5 ml of 2 M alkaline hydroxylamine was added and thoroughly mixed, and allowed to stand at room temperature for 15 minutes.

Sequence of Human Plasma Kallikrein (P03952 391-638 limits assumed): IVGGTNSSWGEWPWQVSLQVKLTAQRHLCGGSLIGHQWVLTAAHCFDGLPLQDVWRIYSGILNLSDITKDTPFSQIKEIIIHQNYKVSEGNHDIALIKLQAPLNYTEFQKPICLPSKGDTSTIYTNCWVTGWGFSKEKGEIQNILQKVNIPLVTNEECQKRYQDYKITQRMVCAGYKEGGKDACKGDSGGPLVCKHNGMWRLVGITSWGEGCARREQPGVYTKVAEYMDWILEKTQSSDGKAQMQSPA
Sequence of Human Plasma Kallikrein (P03952 20-390 partner limits assumed): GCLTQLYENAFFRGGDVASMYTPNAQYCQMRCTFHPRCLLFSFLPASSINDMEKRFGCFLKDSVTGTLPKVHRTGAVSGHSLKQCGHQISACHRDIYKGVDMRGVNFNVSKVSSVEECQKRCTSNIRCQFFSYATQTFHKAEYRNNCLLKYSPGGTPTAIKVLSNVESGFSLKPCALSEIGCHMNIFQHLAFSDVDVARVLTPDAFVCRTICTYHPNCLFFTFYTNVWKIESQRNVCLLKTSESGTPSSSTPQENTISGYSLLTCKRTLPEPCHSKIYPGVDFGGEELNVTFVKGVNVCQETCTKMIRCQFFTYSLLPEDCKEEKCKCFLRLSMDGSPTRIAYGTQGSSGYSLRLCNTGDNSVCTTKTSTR

| Structure (SMILES) | inhibition at 1000 µM |
| --- | --- |
| COC(=O)c1cccc(OC(=O)C2CCCc3c(N)cccc32)c1 (stereo not drawn) [Compound 64] | 28% |
| CCOC(=O)c1ccc(OC(=O)C2CCCc3c(N)cccc32)cc1.Cl (stereo not drawn) [Compound 66, p-ethoxycarbonylphenyl 5-amino-1,2,3,4-tetrahydro-1-naphthoate hydrochloride] | 19.9% |
| CCOC(=O)COC(=O)c1ccc(OC(=O)C2CCCc3c(N)cccc32)cc1 (stereo not drawn) [Compound 70] | 14.1% |
| NC(=O)COC(=O)c1ccc(OC(=O)C2CCCc3c(N)cccc32)cc1 (stereo not drawn) [Compound 71] | 23.4% |
| COC(=O)c1cccc(OC(=O)C2CCCc3ccc(N)cc32)c1 (stereo not drawn) [Compound 92] | < 3.2% |
| CCOC(=O)c1ccc(OC(=O)C2CCCc3ccc(N)cc32)cc1 (stereo not drawn) [Compound 94] | 25% |
| CCOC(=O)COC(=O)c1ccc(OC(=O)C2CCCc3ccc(N)cc32)cc1 (stereo not drawn) [Compound 98] | < 3.2% |
| CN(C)C(=O)COC(=O)c1ccc(OC(=O)C2CCCc3ccc(N)cc32)cc1 (stereo not drawn) [Compound 100] | 36% |
| CN(C)C(=O)COC(=O)Cc1ccc(OC(=O)C2CCCc3ccc(N)cc32)cc1 (stereo not drawn) [Compound 101] | 34.4% |
| CN(C)C(=O)COC(=O)CCc1ccc(OC(=O)C2CCCc3ccc(N)cc32)cc1 (stereo not drawn) [Compound 103] | 13.3% |

same assay, conditions: text of Examples

| Structure (SMILES) | inhibitory activity on kallikrein |
| --- | --- |
| CCOC(=O)c1ccc(OC(=O)C2CCCc3c(N)cccc32)cc1.Cl (stereo not drawn) [Compound 66, p-ethoxycarbonylphenyl 5-amino-1,2,3,4-tetrahydro-1-naphthoate hydrochloride] | no inhibitory activity |

molecular target: T1, Human Cl Esterase (Homo sapiens, UniProt P09871); assay: Inhibitory effect on ester-hydrolyzing activity of human Cl esterase (ATEe substrate); format: biochemical; settings: at 10^-3 M; in vitro, ATEe; read-out: Cl-esterase percent inhibition
T1 sequence (P09871 438-688 limits assumed): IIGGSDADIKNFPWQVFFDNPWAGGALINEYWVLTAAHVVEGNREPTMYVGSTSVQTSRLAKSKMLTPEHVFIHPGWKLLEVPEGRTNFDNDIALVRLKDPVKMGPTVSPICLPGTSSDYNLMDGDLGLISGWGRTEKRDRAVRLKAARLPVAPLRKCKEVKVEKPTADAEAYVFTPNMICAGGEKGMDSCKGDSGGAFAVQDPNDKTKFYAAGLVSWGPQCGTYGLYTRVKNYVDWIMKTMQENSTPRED
T1 sequence (P09871 16-437 partner limits assumed): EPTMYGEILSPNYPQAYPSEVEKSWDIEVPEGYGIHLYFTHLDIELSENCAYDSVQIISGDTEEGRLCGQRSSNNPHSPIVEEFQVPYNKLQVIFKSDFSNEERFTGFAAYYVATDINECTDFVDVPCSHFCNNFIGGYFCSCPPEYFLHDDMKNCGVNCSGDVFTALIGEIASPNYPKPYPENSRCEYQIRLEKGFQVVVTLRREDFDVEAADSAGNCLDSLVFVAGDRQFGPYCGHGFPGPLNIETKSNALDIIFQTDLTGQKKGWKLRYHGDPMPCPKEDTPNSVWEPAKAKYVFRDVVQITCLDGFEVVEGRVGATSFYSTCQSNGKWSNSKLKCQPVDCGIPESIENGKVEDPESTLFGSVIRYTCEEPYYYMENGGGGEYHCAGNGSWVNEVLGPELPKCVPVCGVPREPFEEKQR
Description: It was measured by using 0.1 ml of Cl esterase, 0.1 ml of 0.02 M sodium phosphate buffer solution (pH 7.4 ) and 10 μmoles of ATEe (acetyltyrosine ethyl ester) as substrate following the method described in (1).

| Structure (SMILES) | inhibition at 1000 µM |
| --- | --- |
| COC(=O)c1cccc(OC(=O)C2CCCc3c(N)cccc32)c1 (stereo not drawn) [Compound 64] | < 3.2% |
| CCOC(=O)COC(=O)c1ccc(OC(=O)C2CCCc3c(N)cccc32)cc1 (stereo not drawn) [Compound 70] | < 3.2% |
| CCOC(=O)c1ccc(OC(=O)C2CCCc3ccc(N)cc32)cc1 (stereo not drawn) [Compound 94] | 3.2% |
| CCOC(=O)COC(=O)c1ccc(OC(=O)C2CCCc3ccc(N)cc32)cc1 (stereo not drawn) [Compound 98] | < 3.2% |

same assay, conditions: read-out: Cl-esterase percent inhibition

| Structure (SMILES) | inhibition at 1000 µM |
| --- | --- |
| CCOC(=O)c1ccc(OC(=O)C2CCCc3c(N)cccc32)cc1.Cl (stereo not drawn) [Compound 66, p-ethoxycarbonylphenyl 5-amino-1,2,3,4-tetrahydro-1-naphthoate hydrochloride] | < 3.2% |
| NC(=O)COC(=O)c1ccc(OC(=O)C2CCCc3c(N)cccc32)cc1 (stereo not drawn) [Compound 71] | 30.6% |
| COC(=O)c1cccc(OC(=O)C2CCCc3ccc(N)cc32)c1 (stereo not drawn) [Compound 92] | 27.3% |
| CN(C)C(=O)COC(=O)c1ccc(OC(=O)C2CCCc3ccc(N)cc32)cc1 (stereo not drawn) [Compound 100] | 42% |
| CN(C)C(=O)COC(=O)Cc1ccc(OC(=O)C2CCCc3ccc(N)cc32)cc1 (stereo not drawn) [Compound 101] | 31.5% |
| CN(C)C(=O)COC(=O)CCc1ccc(OC(=O)C2CCCc3ccc(N)cc32)cc1 (stereo not drawn) [Compound 103] | 27.2% |

same assay, conditions: text of Examples

| Structure (SMILES) | inhibitory activity on Cl-esterase |
| --- | --- |
| CCOC(=O)c1ccc(OC(=O)C2CCCc3c(N)cccc32)cc1.Cl (stereo not drawn) [Compound 66, p-ethoxycarbonylphenyl 5-amino-1,2,3,4-tetrahydro-1-naphthoate hydrochloride] | no inhibitory activity |

molecular target: T2, Trypsin (Bos taurus, UniProt P00760); assay: Inhibitory effect on ester-hydrolyzing activity of trypsin (TAMe substrate); format: biochemical; settings: in vitro, TAMe, pH 8.6, 37° C.; Table 4 bracketed value; read-out: Trypsin ID50
T2 sequence (P00760 24-246): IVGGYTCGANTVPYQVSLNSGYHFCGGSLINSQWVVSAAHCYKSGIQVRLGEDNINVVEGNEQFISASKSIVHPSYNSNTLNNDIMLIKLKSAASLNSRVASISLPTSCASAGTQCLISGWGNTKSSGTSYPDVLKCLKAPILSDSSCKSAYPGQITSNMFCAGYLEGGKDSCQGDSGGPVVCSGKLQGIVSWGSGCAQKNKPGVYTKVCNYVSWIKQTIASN
Description: as §1

| Structure (SMILES) | IC50 |
| --- | --- |
| COC(=O)c1cccc(OC(=O)C2CCCc3c(N)cccc32)c1 (stereo not drawn) [Compound 64] | 61 µM |
| CCOC(=O)COC(=O)c1ccc(OC(=O)C2CCCc3c(N)cccc32)cc1 (stereo not drawn) [Compound 70] | 52 µM |
| NC(=O)COC(=O)c1ccc(OC(=O)C2CCCc3c(N)cccc32)cc1 (stereo not drawn) [Compound 71] | 31 µM |
| COC(=O)c1cccc(OC(=O)C2CCCc3ccc(N)cc32)c1 (stereo not drawn) [Compound 92] | 98 µM |
| CCOC(=O)c1ccc(OC(=O)C2CCCc3ccc(N)cc32)cc1 (stereo not drawn) [Compound 94] | 46 µM |
| CCOC(=O)COC(=O)c1ccc(OC(=O)C2CCCc3ccc(N)cc32)cc1 (stereo not drawn) [Compound 98] | 60 µM |
| CN(C)C(=O)COC(=O)c1ccc(OC(=O)C2CCCc3ccc(N)cc32)cc1 (stereo not drawn) [Compound 100] | 190 µM |
| CN(C)C(=O)COC(=O)Cc1ccc(OC(=O)C2CCCc3ccc(N)cc32)cc1 (stereo not drawn) [Compound 101] | 110 µM |
| CN(C)C(=O)COC(=O)CCc1ccc(OC(=O)C2CCCc3ccc(N)cc32)cc1 (stereo not drawn) [Compound 103] | 78 µM |

same assay, conditions: in vitro; text of Examples; read-out: ID50, tosylarginine methyl ester hydrolyzing activity of trypsin

| Structure (SMILES) | IC50 |
| --- | --- |
| CCOC(=O)c1ccc(OC(=O)C2CCCc3c(N)cccc32)cc1.Cl (stereo not drawn) [Compound 66, p-ethoxycarbonylphenyl 5-amino-1,2,3,4-tetrahydro-1-naphthoate hydrochloride] | 88 µM |

molecular target: Bovine Thrombin (Bos taurus, UniProt P00735); assay: Inhibitory effect on ester-hydrolyzing activity of bovine thrombin (TAMe substrate); format: biochemical; settings: not given
Description: The enzyme-inhibitory activities in vitro of the compounds of this invention were measured by the following procedure according to the method of M. Muramatsu et al. [M. Muramatsu, T. Onishi, S. Makino, Y. Hayashi and S. Fujii: J. Biochem., 58, 214 (1965)]
To 0.1 ml of trypsin (5 μg/ml) were added 0.5 ml of 0.1 M borate buffer solution (pH 8.6) containing 10 mM CaCl2, and 0.1 ml of a varying concentration of an inhibitor solution, and preincubation was carried out at 37° C. for 5 minutes. Then, 10 μmoles of the substrate, TAMe (tosylarginine methyl ester), was added, and incubation was preformed at 37° C. for 30 minutes.
After the incubation, 1.5 ml of 2 M alkaline hydroxylamine was added and thoroughly mixed, and allowed to stand at room temperature for 15 minutes. Then, 1.0 ml of each of 18% trichloroacetic acid, 4 N HCl and 10% FeCl3 was added and thoroughly mixed. If necessary, the mixture was centrifuged at 3,000 rpm for 10 minutes, and the absorbance of the supernatant was measured at 530 nm.
It was measured by using 0.4 ml of bovine thrombin […], 0.02 M sodium phosphate buffer solution (pH 7.4) and TAMe as substrate following the method described in (1).

| Structure (SMILES) | IC50 |
| --- | --- |
| NC(=O)COC(=O)c1ccc(OC(=O)C2CCCc3c(N)cccc32)cc1 (stereo not drawn) [Compound 71] | 62 µM |
| COC(=O)c1cccc(OC(=O)C2CCCc3ccc(N)cc32)c1 (stereo not drawn) [Compound 92] | 1000 µM |
| CN(C)C(=O)COC(=O)c1ccc(OC(=O)C2CCCc3ccc(N)cc32)cc1 (stereo not drawn) [Compound 100] | 40 µM |
| CN(C)C(=O)COC(=O)Cc1ccc(OC(=O)C2CCCc3ccc(N)cc32)cc1 (stereo not drawn) [Compound 101] | 300 µM |
| CN(C)C(=O)COC(=O)CCc1ccc(OC(=O)C2CCCc3ccc(N)cc32)cc1 (stereo not drawn) [Compound 103] | 1000 µM |

same assay, conditions: at 10^-3 M; in vitro, TAMe; read-out: Thrombin percent inhibition

| Structure (SMILES) | inhibition at 1000 µM |
| --- | --- |
| COC(=O)c1cccc(OC(=O)C2CCCc3c(N)cccc32)c1 (stereo not drawn) [Compound 64] | 20.3% |
| CCOC(=O)c1ccc(OC(=O)C2CCCc3c(N)cccc32)cc1.Cl (stereo not drawn) [Compound 66, p-ethoxycarbonylphenyl 5-amino-1,2,3,4-tetrahydro-1-naphthoate hydrochloride] | 16.5% |
| CCOC(=O)COC(=O)c1ccc(OC(=O)C2CCCc3c(N)cccc32)cc1 (stereo not drawn) [Compound 70] | 22% |
| CCOC(=O)c1ccc(OC(=O)C2CCCc3ccc(N)cc32)cc1 (stereo not drawn) [Compound 94] | 42.9% |
| CCOC(=O)COC(=O)c1ccc(OC(=O)C2CCCc3ccc(N)cc32)cc1 (stereo not drawn) [Compound 98] | 40.5% |

same assay, conditions: text of Examples

| Structure (SMILES) | inhibitory activity on thrombin |
| --- | --- |
| CCOC(=O)c1ccc(OC(=O)C2CCCc3c(N)cccc32)cc1.Cl (stereo not drawn) [Compound 66, p-ethoxycarbonylphenyl 5-amino-1,2,3,4-tetrahydro-1-naphthoate hydrochloride] | no inhibitory activity |

molecular target: Human Plasmin (Homo sapiens, UniProt P00747); assay: Inhibitory effect on ester-hydrolyzing activity of human plasmin (TAMe substrate); format: biochemical; settings: at 10^-3 M; in vitro, TAMe; read-out: Plasmin percent inhibition
Description: The enzyme-inhibitory activities in vitro of the compounds of this invention were measured by the following procedure according to the method of M. Muramatsu et al. [[…]. […] After the incubation, 1.5 ml of 2 M alkaline hydroxylamine was added and thoroughly mixed, and allowed to stand at room temperature for 15 minutes. […] It was measured by using 0.1 ml of plasmin (generated by activation of plasminogen with streptokinase) and TAMe as substrate following the method described in (1).

Sequence of Human Plasmin (P00747 581-810 limits assumed): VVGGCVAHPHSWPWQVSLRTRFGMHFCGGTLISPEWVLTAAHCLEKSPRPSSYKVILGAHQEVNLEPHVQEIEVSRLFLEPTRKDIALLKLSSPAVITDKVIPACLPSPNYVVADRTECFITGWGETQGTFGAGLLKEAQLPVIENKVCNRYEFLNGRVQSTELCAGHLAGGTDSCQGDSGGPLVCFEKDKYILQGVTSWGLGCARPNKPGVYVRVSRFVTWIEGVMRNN
Sequence of Human Plasmin (P00747 97-580 partner limits assumed): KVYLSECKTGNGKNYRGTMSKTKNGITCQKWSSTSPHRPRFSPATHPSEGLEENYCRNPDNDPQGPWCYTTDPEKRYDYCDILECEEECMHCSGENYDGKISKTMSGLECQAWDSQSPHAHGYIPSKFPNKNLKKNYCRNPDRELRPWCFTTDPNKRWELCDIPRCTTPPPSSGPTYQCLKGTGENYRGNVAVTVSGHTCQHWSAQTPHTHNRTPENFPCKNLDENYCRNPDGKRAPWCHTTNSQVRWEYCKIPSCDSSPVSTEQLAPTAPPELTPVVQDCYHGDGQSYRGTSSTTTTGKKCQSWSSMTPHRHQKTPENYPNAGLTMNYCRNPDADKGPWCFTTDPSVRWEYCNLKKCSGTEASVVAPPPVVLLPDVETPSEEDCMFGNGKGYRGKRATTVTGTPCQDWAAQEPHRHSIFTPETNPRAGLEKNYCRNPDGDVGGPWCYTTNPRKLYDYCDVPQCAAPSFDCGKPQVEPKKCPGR

| Structure (SMILES) | inhibition at 1000 µM |
| --- | --- |
| COC(=O)c1cccc(OC(=O)C2CCCc3c(N)cccc32)c1 (stereo not drawn) [Compound 64] | < 3.2% |
| CCOC(=O)c1ccc(OC(=O)C2CCCc3c(N)cccc32)cc1.Cl (stereo not drawn) [Compound 66, p-ethoxycarbonylphenyl 5-amino-1,2,3,4-tetrahydro-1-naphthoate hydrochloride] | 4.4% |
| CCOC(=O)COC(=O)c1ccc(OC(=O)C2CCCc3c(N)cccc32)cc1 (stereo not drawn) [Compound 70] | 26.2% |
| COC(=O)c1cccc(OC(=O)C2CCCc3ccc(N)cc32)c1 (stereo not drawn) [Compound 92] | < 3.2% |
| CCOC(=O)c1ccc(OC(=O)C2CCCc3ccc(N)cc32)cc1 (stereo not drawn) [Compound 94] | 16.6% |
| CCOC(=O)COC(=O)c1ccc(OC(=O)C2CCCc3ccc(N)cc32)cc1 (stereo not drawn) [Compound 98] | 24.6% |
| CN(C)C(=O)COC(=O)CCc1ccc(OC(=O)C2CCCc3ccc(N)cc32)cc1 (stereo not drawn) [Compound 103] | 21.5% |

same assay, conditions: in vitro, TAMe; Table 4 bracketed value; read-out: Plasmin ID50

| Structure (SMILES) | IC50 |
| --- | --- |
| NC(=O)COC(=O)c1ccc(OC(=O)C2CCCc3c(N)cccc32)cc1 (stereo not drawn) [Compound 71] | 54 µM |
| CN(C)C(=O)COC(=O)c1ccc(OC(=O)C2CCCc3ccc(N)cc32)cc1 (stereo not drawn) [Compound 100] | 53 µM |
| CN(C)C(=O)COC(=O)Cc1ccc(OC(=O)C2CCCc3ccc(N)cc32)cc1 (stereo not drawn) [Compound 101] | 48 µM |

same assay, conditions: text of Examples

| Structure (SMILES) | inhibitory activity on plasmin |
| --- | --- |
| CCOC(=O)c1ccc(OC(=O)C2CCCc3c(N)cccc32)cc1.Cl (stereo not drawn) [Compound 66, p-ethoxycarbonylphenyl 5-amino-1,2,3,4-tetrahydro-1-naphthoate hydrochloride] | no inhibitory activity |
